Test results taken from US20240226026A1, “BRANCHED TAIL LIPID COMPOUNDS AND COMPOSITIONS FOR INTRACELLULAR DELIVERY OF THERAPEUTIC AGENTS” (ModernaTX, Inc., priority 2021, published 2024).

What was measured:
[1] = Particle size (diameter) and polydispersity index of lipid nanoparticles; type: physicochemical; conditions: nanoparticles comprising the lipid
Protocol: A Zetasizer Nano ZS (Malvern Instruments Ltd, Malvern, Worcestershire, UK) can be used to determine the particle size, the polydispersity index (PDI) and the zeta potential of the nanoparticle compositions in 1×PBS in determining particle size and 15 mM PBS in determining zeta potential.
Lipid nanoparticles (e.g., empty LNPs or loaded LNPs) may be characterized by a variety of methods. For example, microscopy (e.g., transmission electron microscopy or scanning electron microscopy) may be used to examine the morphology and size distribution of a nanoparticle composition. Dynamic light scattering or potentiometry (e.g., potentiometric titrations) may be used to measure zeta potentials. Dynamic light scattering may also be utilized to determine particle sizes. Instruments such as the Zetasizer Nano ZS (Malvern Instruments Ltd, Malvern, Worcestershire, UK) may also be used to measure multiple characteristics of a nanoparticle composition, such as particle size, polydispersity index, and zeta potential.
(§1) Lipid nanoparticles (e.g., empty LNPs or loaded LNPs) including DSPC as a phospholipid, cholesterol as a structural lipid, PL-II (e.g., PEG-1) as a PEG lipid, and a lipid according to Formula (I-1), (I), (I-A), (I-A1), (I-A2), (I-A3), or (I-A4) were prepared. In some embodiments, the lipid nanoparticles further included rhodamine-DOPE as a fluorescent lipid. Tables 2a, 2b, and 3 summarize the characteristics of the formulations.

[2] = Encapsulation efficiency (% EE) of lipid nanoparticles; type: physicochemical; conditions: nanoparticles comprising the lipid
Protocol: For nanoparticle compositions including an RNA, a QUANT-IT™ RIBOGREEN® RNA assay (Invitrogen Corporation Carlsbad, CA) can be used to evaluate the encapsulation of an RNA by the nanoparticle composition. The samples are diluted to a concentration of approximately 5 μg/mL in a TE buffer solution (10 mM Tris-HCl, 1 mM EDTA, pH 7.5). 50 μL of the diluted samples are transferred to a polystyrene 96 well plate and either 50 μL of TE buffer or 50 μL of a 2% Triton X-100 solution is added to the wells. The plate is incubated at a temperature of 37° C. for 15 minutes. The RIBOGREEN® reagent is diluted 1:100 in TE buffer, and 100 μL of this solution is added to each well. The fluorescence intensity can be measured using a fluorescence plate reader (Wallac Victor 1420 Multilablel Counter; Perkin Elmer, Waltham, MA) at an excitation wavelength of, for example, about 480 nm and an emission wavelength of, for example, about 520 nm. The fluorescence values of the reagent blank are subtracted from that of each of the samples and the percentage of free RNA is determined by dividing the fluorescence intensity of the intact sample (without addition of Triton X-100) by the fluorescence value of the disrupted sample (caused by the addition of Triton X-100).
The efficiency of encapsulation of a therapeutic and/or prophylactic describes the amount of therapeutic and/or prophylactic that is encapsulated or otherwise associated with a lipid nanoparticle (e.g., an empty LNP or a loaded LNP) after preparation, relative to the initial amount provided. The encapsulation efficiency is desired to be high (e.g., close to 100%). The encapsulation efficiency may be measured, for example, by comparing the amount of therapeutic and/or prophylactic in a solution containing a loaded LNP before and after breaking up the loaded LNP with one or more organic solvents or detergents. Fluorescence may be used to measure the amount of free therapeutic and/or prophylactic (e.g., RNA) in a solution. For the loaded LNPs formulated with lipids of the disclosure, the encapsulation efficiency of a therapeutic and/or prophylactic is at least 50%, for example 50%, 55%, 60%, 65%, 70%, 75%, 80%, 85%, 90%, 91%, 92%, 93%, 94%, 95%, 96%, 97%, 98%, 99%, or 100%. In some embodiments, the encapsulation efficiency is at least 80%. In some embodiments, the encapsulation efficiency is at least 90%. In some embodiments, the encapsulation efficiency of the therapeutic and/or prophylactic agent is between 80% and 100%.
as §1

[3] = Lipid nanoparticle surface hydrophobicity by Generalized Polarization by Laurdan (N-GP); type: physicochemical; conditions: for Lipid nanoparticle surface hydrophobicity (N-GP*): Table 2a, Laurdan, higher N-GP indicates a less polar surface; for LNP surface hydrophobicity (N-GP*): Table 2b, nanoparticles comprising the lipid
From the text: Surface hydrophobicity of nanoparticles of the disclosure can be measured by Generalized Polarization by Laurdan (GPL). In this method, Laurdan, a fluorescent aminonaphthalene ketone lipid, is post-inserted into the nanoparticle surface and the fluorescence spectrum of Laurdan is collected to determine the normalized Generalized Polarization (N-GP). In some embodiments, nanoparticles formulated with lipids of the disclosure have a surface hydrophobicity expressed as N-GP of between about 0.5 and about 1.5. For example, in some embodiments, nanoparticles formulated with lipids of the disclosure have a surface hydrophobicity expressed as N-GP of about 0.5, about 0.6, about 0.7, about 0.8, about 0.9, about 1.0, about 1.1, about 1.2, about 1.3, about 1.4, or about 1.5. In some embodiments, nanoparticles formulated with lipids of the disclosure have a surface hydrophobicity expressed as N-GP of about 1.0 or about 1.1.

[4] = Apparent pKa of lipid nanoparticles; type: physicochemical; conditions: for Apparent pKa: Table 2a, nanoparticles comprising the lipid; for Apparent pKa 95% CI: Table 2b, 95% confidence interval
CD-1 mice = assay: Expression of hEPO induced by LNPs (mRNA encoding hEPO) administered to mice; type: in vivo; conditions: Table 4a, serum, 6 h after intravenous injection; for Avg. hEPO Concentration (mIU/mL)* ± Avg. SD: ELLA Simple Plex Assay
Protocol: In some embodiments, hEPO concentrations were determined using an […] (ELLA) Simple Plex Assay (ProteinSimple) with a Human Erythroprotein cartridge. Standards for this assay are calibrated according to the 2. IRP WHO preparation. Nanoparticle compositions including mRNA are useful in the evaluation of the efficacy and usefulness of various formulations for the delivery of therapeutic and/or prophylactics. Higher levels of protein expression induced by administration of a composition including an mRNA will be indicative of higher mRNA translation and/or nanoparticle composition mRNA delivery efficiencies. As the non-RNA components are not thought to affect translational machineries themselves, a higher level of protein expression is likely indicative of a higher efficiency of delivery of the therapeutic and/or prophylactic by a given nanoparticle composition relative to other nanoparticle compositions or the absence thereof.
To assess potency of expression of lipids of the disclosure, the protein expression (hEPO) following administration of a nanoparticle comprising a lipid of the disclosure (e.g., a loaded LNP) to mice was measured.
Lipid nanoparticles (LNPs) including DSPC as a phospholipid, cholesterol as a structural lipid, PL-II (e.g., PEG-1) as a PEG lipid, a lipid according to Formula (I-1), (I), (I-A), (I-A1), (I-A2), (I-A3), or (I-A4), and an mRNA encoding hEPO were intravenously administered to CD-1 mice. The concentration of hEPO in serum was tested at 6 h after injection.

[5] = Table 2a, DSPC, cholesterol, PEG lipid

CCCCCCCCC(CCCCCCCC)OC(=O)CCCCCCCN(CCCCCCCC(=O)OCCC(CCCC)CCCC)CCCNS(=O)(=O)CCOC [Compound 3]
PDI ([1]; Table 2a): 0.099 | Diameter (nm) [1, 5]: 72.1 nm | Diameter (nm) ([1]; Table 3): 80.9 nm | PDI ([1]; Table 3): 0.139 | % EE ([2]; Table 2a): 89.4% | % EE ([2]; Table 3): 95.6% | Lipid nanoparticle surface hydrophobicity (N-GP*) [3]: 1.00 | Apparent pKa [4]: 6.549 | Avg. hEPO Concentration (mIU/mL) ± Avg. SD (CD-1 mice): 7.11E+06 ± 1.75E+05 mIU/mL

CCCCCC(CCCCC)CCOC(=O)CCCCCCCN(CCCCCCCC(=O)OCCC(CCCCC)CCCCC)CCCNc1ncccc1N [Compound 28]
Diameter (nm) ([1]; Table 2b): 84.3 nm | PDI ([1]; Table 2b): 0.202 | Diameter (nm) ([1]; Table 3): 90.3 nm | PDI ([1]; Table 3): 0.161 | % EE ([2]; Table 2b): 99.9% | % EE ([2]; Table 3): 99.5% | LNP surface hydrophobicity (N-GP*) [3]: 0.99 | Apparent pKa 95% CI [4]: 6.545 to 6.670 | Avg. hEPO Concentration (mIU/mL)* ± Avg. SD (CD-1 mice): 6.30E+05 ± 1.83E+04 mIU/mL

CCCCCC(CCCCC)CCOC(=O)CCCCCCCN(CCCCCCCC(=O)OCCC(CCCCC)CCCCC)CCCNS(=O)(=O)Cc1ccon1 [Compound 27]
Diameter (nm) ([1]; Table 2b): 87.8 nm | PDI ([1]; Table 2b): 0.178 | Diameter (nm) ([1]; Table 3): 66.9 nm | PDI ([1]; Table 3): 0.148 | % EE ([2]; Table 2b): 78.2% | % EE ([2]; Table 3): 93.5% | LNP surface hydrophobicity (N-GP*) [3]: 1.00 | Apparent pKa 95% CI [4]: 6.614 to 6.687 | Avg. hEPO Concentration (mIU/mL)* ± Avg. SD (CD-1 mice): 2.12E+06 ± 7.18E+04 mIU/mL

CCCCCC(CCCCC)CCOC(=O)CCCCCCCN(CCCCCCCC(=O)OCCC(CCCCC)CCCCC)CCCNc1n[s+]([O-])nc1NC (centres unmarked) [Compound 22]
PDI ([1]; Table 2a): 0.104 | Diameter (nm) [1, 5]: 78.3 nm | Diameter (nm) ([1]; Table 3): 83.4 nm | PDI ([1]; Table 3): 0.195 | % EE ([2]; Table 2a): 95.6% | % EE ([2]; Table 3): 97.2% | Lipid nanoparticle surface hydrophobicity (N-GP*) [3]: 1.03 | Apparent pKa [4]: 6.895 | Avg. hEPO Concentration (mIU/mL) ± Avg. SD (CD-1 mice): 7.14E+06 ± 1.53E+05 mIU/mL

CCCCCCCC(CCCCCCC)OC(=O)CCCCCCCN(CCCCCCCC(=O)OCCC(CCCC)CCCC)CCCNS(=O)(=O)Cc1ccon1 [Compound 20]
Diameter (nm) ([1]; Table 2b): 76.7 nm | PDI ([1]; Table 2b): 0.132 | Diameter (nm) ([1]; Table 3): 66 nm | PDI ([1]; Table 3): 0.106 | % EE ([2]; Table 2b): 84.0% | % EE ([2]; Table 3): 87.5% | LNP surface hydrophobicity (N-GP*) [3]: 1.00 | Apparent pKa 95% CI [4]: 6.441 to 6.526 | Avg. hEPO Concentration (mIU/mL)* ± Avg. SD (CD-1 mice): 5.30E+06 ± 1.59E+05 mIU/mL

CCCCCCCCC(CCCCCCCC)OC(=O)CCCCCCCN(CCCCCCCC(=O)OCCC(CCCC)CCCC)CCCNc1noc(N)n1 [Compound 2]
Diameter (nm) ([1]; Table 2b): 68.6 nm | PDI ([1]; Table 2b): 0.214 | Diameter (nm) ([1]; Table 3): 52.6 nm | PDI ([1]; Table 3): 0.163 | % EE ([2]; Table 2b): 99.2% | % EE ([2]; Table 3): 97.6% | LNP surface hydrophobicity (N-GP*) [3]: 1.21 | Apparent pKa 95% CI [4]: 6.437 to 6.559 | Avg. hEPO Concentration (mIU/mL)* ± Avg. SD (CD-1 mice): 3.38E+05 ± 9.49E+03 mIU/mL

CCCCCC(CCCCC)CCOC(=O)CCCCCCCN(CCCCCCCC(=O)OCCC(CCCC)CCCC)CCCNS(=O)(=O)CC [Compound 12]
PDI ([1]; Table 2a): 0.248 | Diameter (nm) [1, 5]: 120.2 nm | Diameter (nm) ([1]; Table 3): 109.2 nm | PDI ([1]; Table 3): 0.155 | % EE ([2]; Table 2a): 80.9% | % EE ([2]; Table 3): 94.1% | Lipid nanoparticle surface hydrophobicity (N-GP*) [3]: 1.04 | Apparent pKa [4]: 6.669 | Avg. hEPO Concentration (mIU/mL) ± Avg. SD (CD-1 mice): 5.83E+06 ± 1.13E+05 mIU/mL

CCCCCC(CCCCC)CCOC(=O)CCCCCCCN(CCCCCCCC(=O)OCCC(CCCC)CCCC)CCCNS(=O)(=O)Cc1ccon1 [Compound 13]
PDI ([1]; Table 2a): 0.205 | Diameter (nm) [1, 5]: 109.5 nm | Diameter (nm) ([1]; Table 2b): 98.5 nm | PDI ([1]; Table 2b): 0.164 | Diameter (nm) ([1]; Table 3): 76.1 nm | PDI ([1]; Table 3): 0.118 | % EE ([2]; Table 2a): 61.0% | % EE ([2]; Table 2b): 73.4% | % EE ([2]; Table 3): 96.1% | Lipid nanoparticle surface hydrophobicity (N-GP*) [3]: 1.08 | LNP surface hydrophobicity (N-GP*) [3]: 1.09 | Apparent pKa [4]: 6.688 | Apparent pKa 95% CI [4]: 6.641 to 6.731 | Avg. hEPO Concentration (mIU/mL) ± Avg. SD (CD-1 mice): 1.41E+07 ± 2.72E+05 mIU/mL

CCCCCC(CCCCC)CCOC(=O)CCCCCCCN(CCCCCCCC(=O)OCCC(CCCCC)CCCCC)CCCNc1noc(N)n1 [Compound 23]
Diameter (nm) ([1]; Table 2b): 87.2 nm | PDI ([1]; Table 2b): 0.181 | Diameter (nm) ([1]; Table 3): 62.7 nm | PDI ([1]; Table 3): 0.144 | % EE ([2]; Table 2b): 98.1% | % EE ([2]; Table 3): 96.4% | LNP surface hydrophobicity (N-GP*) [3]: 0.95 | Apparent pKa 95% CI [4]: 6.511 to 6.611 | Avg. hEPO Concentration (mIU/mL)* ± Avg. SD (CD-1 mice): 1.17E+06 ± 1.91E+04 mIU/mL
